Each structure is given as a SMILES string. Values joined by “and” are separate entries in the source; they are usually repeats but may differ in a detail not shown here. Equal values may be shown once. Inconclusive results and toxic doses are left out.

In this assay the test system is P388 leukemia ip, CD2F1 mice, survival T/C. Put plainly: NCI In Vivo Anticancer Drug Screen. Data for tumor model P388 Leukemia (intraperitoneal) in CD2F1 (CDF1) mice. As to conditions: endpoint: median survival time, higher = longer survival. In a few lines: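 Mice carrying the transplanted tumor received test compound or vehicle. Survival was recorded in each group, and the value is the treated-group measurement divided by that of the vehicle-treated control group.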

[1] abbreviates: dose: 50.0 mg/kg/injection, schedule: Q01DX001 (ip), vehicle: saline with Tween-80.
Where [2] appears, read: dose: 100.0 mg/kg/injection, schedule: Q01DX001 (ip), vehicle: saline with Tween-80.
[3] abbreviates: dose: 50.0 mg/kg/injection, schedule: Q01DX009 (ip), vehicle: saline.
Setting [4] is: dose: 50.0 mg/kg/injection, schedule: Q01DX005 (ip), vehicle: saline with Tween-80.
[5] abbreviates: dose: 100.0 mg/kg/injection, schedule: Q01DX005 (ip), vehicle: saline with Tween-80.
Setting [6] is: dose: 100.0 mg/kg/injection, schedule: Q01DX009 (ip), vehicle: saline with Tween-80.
[7] abbreviates: dose: 200.0 mg/kg/injection, schedule: Q01DX009 (ip), vehicle: saline with Tween-80.
Setting [8] is: dose: 50.0 mg/kg/injection, schedule: Q01DX009 (ip), vehicle: saline with Tween-80.

With `Nc1cnccc1Nc1ccncc1`, the T/C reads like this: under setting [1], 95 % of control; under setting [2], 100 % of control.
As to `COc1cc(Br)c(C(=O)N(C)c2ccccc2)cc1OC`, the T/C was 106 % of control (dose: 25.0 mg/kg/injection, schedule: Q01DX009 (ip), vehicle: other) and 108 % of control (dose: 50.0 mg/kg/injection, schedule: Q01DX009 (ip), vehicle: other).
In the case of `CCCCCCC(=O)CC(SCCS)c1ccc(Cl)c(Cl)c1` (stereo not drawn), the T/C is, setting by setting: under setting [3], 102 % of control; (dose: 100.0 mg/kg/injection, schedule: Q01DX009 (ip), vehicle: saline) 89 % of control.
As for `CCOc1cccc(/C=N\Nc2nc(=O)cc(C(=O)OC)s2)c1O`, the T/C under setting [4] is 97 % of control; the T/C under setting [5] was 104 % of control; the T/C (dose: 200.0 mg/kg/injection, schedule: Q01DX005 (ip), vehicle: saline with Tween-80) was 107 % of control.
For the compound `CCCCCCCCCCCCCCCC(=O)N(CCC#N)CCC#N`, the T/C under setting [6] was 185 % of control and the T/C under setting [7] is 100 % of control.
Take `CCOC(=O)C1OC1(C)c1ccccc1` (stereo not drawn): the T/C by setting is: under setting [8], 102 % of control; under setting [6], 100 % of control; under setting [7], 107 % of control.
Consider `COCn1ccnc1C(=O)c1ccco1`, for which the T/C under setting [8] was 103 % of control, the T/C under setting [6] is 111 % of control and the T/C under setting [7] was 94 % of control.
Consider `CN1CC2OC2(c2ccccc2)C(c2ccccc2)C1` (stereo not drawn), for which the T/C by setting is: under setting [4], 102 % of control; under setting [5], 102 % of control.
Turning to `COC(=O)c1cc([N+](=O)[O-])ccc1N=NNc1ccccc1`, the T/C is 106 % of control (dose: 12.5 mg/kg/injection, schedule: Q01DX009 (ip), vehicle: saline); 103 % of control and 95 % of control (dose: 25.0 mg/kg/injection, schedule: Q01DX009 (ip), vehicle: saline); 100 % of control and 105 % of control and 95 % of control under setting [3]; 87 % of control (dose: 200.0 mg/kg/injection, schedule: Q01DX009 (ip), vehicle: saline).
As for `C[N+](C)(C)N=P(O)(N[N+](C)(C)C)Oc1ccccc1` (stereo not drawn), the T/C (dose: 60.0 mg/kg/injection, schedule: Q01DX005 (ip), vehicle: saline) is 95 % of control; the T/C (dose: 120.0 mg/kg/injection, schedule: Q01DX005 (ip), vehicle: saline) was 100 % of control; the T/C (dose: 240.0 mg/kg/injection, schedule: Q01DX005 (ip), vehicle: saline) was 95 % of control.
Regarding `O=C1OC(Cl)C(c2ccccc2)=C1c1ccccc1` (stereo not drawn), the T/C (dose: 100.0 mg/kg/injection, schedule: Q04DX002 (ip), vehicle: saline) was 96 % of control; the T/C (dose: 200.0 mg/kg/injection, schedule: Q04DX002 (ip), vehicle: saline) was 98 % of control; the T/C (dose: 400.0 mg/kg/injection, schedule: Q04DX002 (ip), vehicle: saline) was 105 % of control.
For `CC12CC1CCCC2OC(=O)c1cc([N+](=O)[O-])cc([N+](=O)[O-])c1` (stereo not drawn), the T/C is 100 % of control (dose: 100.0 mg/kg/injection, schedule: Q04DX003 (ip), vehicle: saline with Tween-80); 95 % of control (dose: 200.0 mg/kg/injection, schedule: Q04DX003 (ip), vehicle: saline with Tween-80); 98 % of control (dose: 400.0 mg/kg/injection, schedule: Q04DX003 (ip), vehicle: saline with Tween-80).
As to `O=C1NC(CCO)C(=O)NC1CCO` (stereo not drawn), the T/C is 100 % of control (dose: 50.0 mg/kg/injection, schedule: Q01DX005 (ip), vehicle: saline); 100 % of control (dose: 100.0 mg/kg/injection, schedule: Q01DX005 (ip), vehicle: saline); 106 % of control (dose: 200.0 mg/kg/injection, schedule: Q01DX005 (ip), vehicle: saline).
With `CCOC(=O)c1cnc(Sc2ccc([N+](=O)[O-])cc2[N+](=O)[O-])nc1N`, the T/C by setting is: (dose: 100.0 mg/kg/injection, schedule: Q04DX003 (ip), vehicle: saline) 93 % of control; (dose: 200.0 mg/kg/injection, schedule: Q04DX003 (ip), vehicle: saline) 100 % of control; (dose: 400.0 mg/kg/injection, schedule: Q04DX003 (ip), vehicle: saline) 98 % of control.
As for `CC(CO)CCC(O)C(C)(O)C1CCC2(O)C3=CC(=O)C4CC(O)C(O)CC4(C)C3CCC12C` (stereo not drawn), the T/C (dose: 1.25 mg/kg/injection, schedule: Q01DX005 (ip), vehicle: Klucel (hydroxypropylcellulose) (HPC)) was 102 % of control; the T/C (dose: 2.5 mg/kg/injection, schedule: Q01DX005 (ip), vehicle: Klucel (hydroxypropylcellulose) (HPC)) is 97 % of control; the T/C (dose: 5.0 mg/kg/injection, schedule: Q01DX005 (ip), vehicle: Klucel (hydroxypropylcellulose) (HPC)) is 98 % of control; the T/C (dose: 10.0 mg/kg/injection, schedule: Q01DX005 (ip), vehicle: Klucel (hydroxypropylcellulose) (HPC)) was 100 % of control; the T/C (dose: 20.0 mg/kg/injection, schedule: Q01DX005 (ip), vehicle: Klucel (hydroxypropylcellulose) (HPC)) is 100 % of control; the T/C (dose: 40.0 mg/kg/injection, schedule: Q01DX005 (ip), vehicle: Klucel (hydroxypropylcellulose) (HPC)) is 100 % of control. Further, the T/C (dose: 80.0 mg/kg/injection, schedule: Q01DX005 (ip), vehicle: Klucel (hydroxypropylcellulose) (HPC)) is 98 % of control.
As for `CCCCCCCCC[N+](C)([O-])CCCCCC[N+](C)([O-])CCCCCCCCC` (stereo not drawn), the T/C by setting is: (dose: 12.5 mg/kg/injection, schedule: Q04DX003 (ip), vehicle: saline) 103 % of control; (dose: 25.0 mg/kg/injection, schedule: Q04DX003 (ip), vehicle: saline) 96 % of control; (dose: 50.0 mg/kg/injection, schedule: Q04DX003 (ip), vehicle: saline) 93 % of control.
With `CN(C)c1ccc(/C=C/c2ccnc3c2ccc2ccccc23)cc1`, the T/C is 108 % of control (dose: 37.5 mg/kg/injection, schedule: Q04DX003 (ip), vehicle: Klucel (hydroxypropylcellulose) (HPC)); 106 % of control under setting [1]; 89 % of control (dose: 75.0 mg/kg/injection, schedule: Q04DX003 (ip), vehicle: Klucel (hydroxypropylcellulose) (HPC)); 93 % of control under setting [2]; 103 % of control (dose: 150.0 mg/kg/injection, schedule: Q04DX003 (ip), vehicle: Klucel (hydroxypropylcellulose) (HPC)); 91 % of control (dose: 200.0 mg/kg/injection, schedule: Q01DX001 (ip), vehicle: saline with Tween-80). Besides, the T/C was 96 % of control (dose: 300.0 mg/kg/injection, schedule: Q04DX003 (ip), vehicle: Klucel (hydroxypropylcellulose) (HPC)) and 91 % of control (dose: 400.0 mg/kg/injection, schedule: Q01DX001 (ip), vehicle: saline with Tween-80).
As for `COC1/C=C/OC2(C)Oc3c(C)c(O)c4c(O)c(c(C=NN5C(C)CN(Cc6ccc(Cl)cc6)CC5C)c(O)c4c3C2=O)NC(=O)/C(C)=C/C=C/C(C)C(O)C(C)C(O)C(C)C(OC(C)=O)C1C` (stereo not drawn), the T/C reads like this: under setting [8], 98 % of control; under setting [6], 95 % of control; under setting [7], 95 % of control.
Take `CNc1c(F)c(C#N)c(F)c(F)c1C#N`: the T/C is 96 % of control (dose: 12.5 mg/kg/injection, schedule: Q01DX009 (ip), vehicle: saline with Tween-80); 89 % of control (dose: 25.0 mg/kg/injection, schedule: Q01DX009 (ip), vehicle: saline with Tween-80); 100 % of control under setting [8].
Turning to `Cc1nn(CCO)c2nc(N)nc(N)c12`, the T/C (dose: 100.0 mg/kg/injection, schedule: Q01DX001 (ip), vehicle: suspension in saline) was 104 % of control; the T/C (dose: 200.0 mg/kg/injection, schedule: Q01DX001 (ip), vehicle: suspension in saline) was 101 % of control; the T/C (dose: 400.0 mg/kg/injection, schedule: Q01DX001 (ip), vehicle: suspension in saline) is 100 % of control.
On to `COc1cccc(C(c2cc3c(cc2O)OCO3)N2CCOCC2)c1OC` (stereo not drawn), for which the T/C is 119 % of control (dose: 60.0 mg/kg/injection, schedule: Q01DX005 (ip), vehicle: saline with Tween-80); 119 % of control (dose: 120.0 mg/kg/injection, schedule: Q01DX005 (ip), vehicle: saline with Tween-80); 117 % of control (dose: 240.0 mg/kg/injection, schedule: Q01DX005 (ip), vehicle: saline with Tween-80).
`CC(/C=N/Nc1ccccc1)=N\N=c1/scc(-c2ccc(Br)cc2)n1-c1ccc(Br)cc1`: the T/C is, setting by setting: (dose: 100.0 mg/kg/injection, schedule: Q04DX002 (ip), vehicle: saline with Tween-80) 86 % of control; (dose: 200.0 mg/kg/injection, schedule: Q04DX002 (ip), vehicle: saline with Tween-80) 86 % of control.
For the compound `COc1cccc2c1C(=O)c1c(O)c3c(c(O)c1C2=O)C[C@@H](C(=O)CO)C[C@@H]3OC1CC(N)C(O)C(C)O1` (stereo partly drawn), the T/C was 105 % of control (dose: 6.25 mg/kg/injection, schedule: Q04DX003 (ip), vehicle: water); 105 % of control (dose: 12.5 mg/kg/injection, schedule: Q04DX003 (ip), vehicle: water); 124 % of control (dose: 25.0 mg/kg/injection, schedule: Q04DX003 (ip), vehicle: water).

These data come from PubChem BioAssay AID330 (DTP/NCI, 2004).
